# Laboratory results: publication PMC7265341, “Quantifying CDK inhibitor selectivity in live cells” (Nature Communications, 2020)
# “And” between values parts separate entries of the source, which are not always exact repeats. Identical values can stand only once.
# Key:
# Type in all cases: binding
# CDK2 = CDK2 (Homo sapiens, UniProt P24941); experiment: Intracellular residence time by cellular washout, CDK2; conditions: for CDK2 occupancy after compound washout (%): Panel B;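 for all read-outs here: NanoBRET live-cell washout assay after 2 h compound pretreatment at 37 °C, rising energy-transfer probe signal tracks loss of CDK2 engagement, compared against DMSO vehicle cells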
# CDK2/cyclin A1 = CDK2/cyclin A1 (Homo sapiens, UniProt P24941); experiment: NanoBRET target engagement, CDK2-NanoLuc co-expressed with cyclin A1 in HEK-293; conditions: probe 5 0.5µM
# CDK7 = CDK7 (Homo sapiens, UniProt P50613); experiment: Intracellular residence time by cellular washout, CDK7; conditions: for CDK7: Panel B
# Description: However, residence times for this and many of the other CDKi’s in our panel have not been reported in cell-free or cellular contexts. […] This condition was selected to ensure adequate target occupancy prior to compound washout. Residence time was then evaluated by a rapid compound washout procedure, followed by addition of energy transfer probe 1. Under these conditions, the rate of the energy transfer signal increase serves as a direct proxy for the loss of the target-CDKi interaction[18],[56],[57].
# Residence time was qualitatively assessed via a cellular washout approach, where delayed energy probe association is used as an indirect measurement for the durability of target/compound engagement. […] After 2 h of incubation at 37 °C, the medium was aspirated from the cells and replaced with fresh OptiMEM containing NanoBRET NanoGlo Substrate and Extracellular NanoLuc Inhibitor. […] Occupancy values were plotted as a function of time.
# Supplementary Figure 22. […] Residence […]
# time was qualitatively assessed by cellular washout as described in the method details and compared to association of energy transfer probe in cells treated with DMSO vehicle. […]
# engagement at CDK6 and kinetic selectivity for CDK6 compared to CDK2 and CDK7. BRET ratios were normalized between the maximum BRET value vs BRET value in the absence of tracer. Kinetic traces and individual points are mean of 3 independent experiments ± S.E.M (n = 3). Source data are provided as a […]
# [1] = Time (Min) 32.9743, listed as RGB-286638
# CDK7, sequence (P50613 whole entry): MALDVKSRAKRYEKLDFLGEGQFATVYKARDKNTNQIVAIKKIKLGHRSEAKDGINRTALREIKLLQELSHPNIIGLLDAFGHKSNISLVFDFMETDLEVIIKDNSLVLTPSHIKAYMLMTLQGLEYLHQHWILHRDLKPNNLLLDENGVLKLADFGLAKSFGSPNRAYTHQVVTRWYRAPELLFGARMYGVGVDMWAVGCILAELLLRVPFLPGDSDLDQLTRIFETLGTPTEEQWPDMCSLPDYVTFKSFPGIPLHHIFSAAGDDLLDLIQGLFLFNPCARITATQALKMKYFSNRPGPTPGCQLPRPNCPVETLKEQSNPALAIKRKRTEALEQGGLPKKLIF
structure (smiles),measurement,setting,value
COCCN1CCN(Cc2ccc(-c3n[nH]c4c3C(=O)c3c(NC(=O)NN5CCOCC5)cccc3-4)cc2)CC1 [RGB286638],CDK2 occupancy after compound washout (%),CDK2; Time (Min) 0,86.242 and 90.073 and 94.3307
same,CDK2 occupancy after compound washout (%),CDK2; Time (Min) 2.97013,79.5117 and 80.9002 and 88.1102
same,CDK2 occupancy after compound washout (%),CDK2; Time (Min) 5.97045,73.673 and 73.2847 and 82.0472
same,CDK2 occupancy after compound washout (%),CDK2; Time (Min) 8.97078,68.5138 and 66.4964 and 75.5906
same,CDK2 occupancy after compound washout (%),CDK2; Time (Min) 11.9714,64.0977 and 61.0706 and 70.5249
same,CDK2 occupancy after compound washout (%),CDK2; Time (Min) 14.9718,59.9363 and 55.5961 and 65.5381
same,CDK2 occupancy after compound washout (%),CDK2; Time (Min) 17.9723,56.1571 and 50.7299 and 61.601
same,CDK2 occupancy after compound washout (%),CDK2; Time (Min) 20.9723,52.6752 and 47.2263 and 57.3753
same,CDK2 occupancy after compound washout (%),CDK2; Time (Min) 23.9731,49.9788 and 43.4307 and 53.9895
same,CDK2 occupancy after compound washout (%),CDK2; Time (Min) 26.9737,47.0913 and 40.219 and 51.2336
same,CDK2 occupancy after compound washout (%),CDK2; Time (Min) 29.9742,44.5011 and 36.91 and 47.9003
same,CDK2 occupancy after compound washout (%),CDK2; [1],42.1444 and 34.1363 and 45.2756
same,CDK2 occupancy after compound washout (%),CDK2; Time (Min) 35.9749,39.724 and 31.4599 and 43.3596
same,CDK2 occupancy after compound washout (%),CDK2; Time (Min) 38.9753,37.5584 and 29.5864 and 40.3675
same,CDK2 occupancy after compound washout (%),CDK2; Time (Min) 41.9753,36.0722 and 27.129 and 39.4488
same,CDK2 occupancy after compound washout (%),CDK2; Time (Min) 44.9758,33.3121 and 25.1582 and 36.6667
same,CDK2 occupancy after compound washout (%),CDK2; Time (Min) 47.9761,31.6136 and 23.6253 and 35.2756
same,CDK2 occupancy after compound washout (%),CDK2; Time (Min) 50.9766,29.9788 and 21.8978 and 32.9134
same,CDK2 occupancy after compound washout (%),CDK2; Time (Min) 53.9771,27.983 and 20.1946 and 30.7874
same,CDK2 occupancy after compound washout (%),CDK2; Time (Min) 56.9772,27.3885 and 18.0049 and 30.0525
same,CDK2 occupancy after compound washout (%),CDK2; Time (Min) 59.9777,25.9023 and 17.2749 and 28.5564
same,CDK2 occupancy after compound washout (%),CDK2; Time (Min) 62.9781,24.4161 and 15.8151 and 27.3753
same,CDK2 occupancy after compound washout (%),CDK2; Time (Min) 65.9785,22.9299 and 14.3552 and 26.2992
same,CDK2 occupancy after compound washout (%),CDK2; Time (Min) 68.9792,21.4437 and 13.6253 and 25.1706
same,CDK2 occupancy after compound washout (%),CDK2; Time (Min) 71.9792,20.5945 and 12.1655 and 24.252
same,CDK2 occupancy after 2 h of analysis following compound washout,"CDK2; live cells, probe 1 at 1 µM",fully dissociated
same,increase of CDK2 engagement potency with cyclin E1 compared with cyclin A1 co-expression,CDK2/cyclin A1,~2 orders of magnitude
same,CDK7,CDK7; Time (Min) 2.97013,63.5317 and 37.2109 and 59.6726
same,CDK7,CDK7; Time (Min) 5.97045,70.1207 and 47.8912 and 70.0893
same,CDK7,CDK7; Time (Min) 8.97078,76.2242 and 55.3742 and 82.1429
same,CDK7,CDK7; Time (Min) 11.9714,80.0388 and 60.068 and 80.8036
same,CDK7,CDK7; Time (Min) 14.9718,83.1599 and 63.8775 and 88.244
same,CDK7,CDK7; Time (Min) 17.9723,84.339 and 67.0068 and 93.006
same,CDK7,CDK7; Time (Min) 20.9723,86.0036 and 69.5238 and 91.8155
same,CDK7,CDK7; Time (Min) 23.9731,87.5988 and 70.4762 and 91.0714
same,CDK7,CDK7; Time (Min) 26.9737,87.252 and 72.2449 and 92.2619
same,CDK7,CDK7; Time (Min) 29.9742,89.6796 and 72.7211 and 93.4524
same,CDK7,CDK7; Time (Min) 32.9743,74.1497
same,CDK7,CDK7; [1],87.9456 and 99.1071
same,CDK7,CDK7; Time (Min) 35.9749,89.8183 and 75.5102 and 100.298
same,CDK7,CDK7; Time (Min) 38.9753,90.3731 and 75.102 and 97.619
same,CDK7,CDK7; Time (Min) 41.9753,91.4829
same,CDK7,CDK7; Time (Min) 236.996,85.5181 and 68.5714 and 62.6488
same,CDK7,CDK7; Time (Min) 239.996,81.0792 and 69.4558 and 75.1488
same,CDK7,CDK7; Time (Min) 242.996,82.6744 and 69.7959 and 76.3393
same,CDK7,CDK7; Time (Min) 245.996,82.397 and 69.0476 and 68.4524
same,CDK7,CDK7; Time (Min) 248.996,81.4954 and 70.068 and 77.0833
same,CDK7,CDK7; Time (Min) 251.996,82.3276 and 68.6395 and 82.7381
same,CDK7,CDK7; Time (Min) 254.996,80.5243 and 67.551 and 74.1071
same,CDK7,CDK7; Time (Min) 257.996,85.2407 and 70.4082 and 62.2024
same,CDK7,CDK7; Time (Min) 260.996,83.0212 and 68.0272 and 80.6548
same,CDK7,CDK7; Time (Min) 263.996,83.8535 and 68.6395 and 70.6845
same,CDK7,CDK7; Time (Min) 266.996,68.0272
same,CDK7,"CDK7; Time (Min) 266.996, listed as RGB-286638",83.7842 and 91.369
same,CDK7,CDK7; Time (Min) 269.996,81.2873 and 68.9116 and 72.9167
same,CDK7,CDK7; Time (Min) 272.996,80.8711 and 70.3401 and 74.8512
same,CDK7,CDK7; Time (Min) 275.996,78.9985 and 67.0748 and 80.0595
same,CDK7,CDK7; Time (Min) 278.996,80.5243 and 67.8231 and 80.6548
same,CDK7,CDK7; Time (Min) 281.996,80.1776 and 69.4558 and 75
same,CDK7,CDK7; Time (Min) 284.996,78.513 and 68.5034 and 75.2976
same,CDK7,CDK7; Time (Min) 287.996,79.8308 and 68.2993 and 76.6369
same,CDK7,CDK7; Time (Min) 290.996,80.5243 and 69.932 and 91.2202
same,CDK7,CDK7; Time (Min) 293.996,78.9985 and 67.9592 and 82.2917
same,CDK7 occupancy after 2 h of analysis following compound washout,"CDK7; live cells, probe 1 at 1 µM",fully dissociated
